Laboratory results taken from US20250280826A1, “PLANT GROWTH PROMOTER” (KAO CORPORATION, priority 2022, published 2025).

Experiments:
soybean [1] = experiment: Example 2: soybean nodule activity (ureide in exudate) one week after foliar spray; type: in vivo
Experimental: Medium-term fertilizer effect type culture soil (Takii hydrous cell medium-term fertilizer effect type, Takii & Co., Ltd.) and vermiculite grains (Akagi-Engei Co., Ltd.) were mixed at a volume ratio of 1:1, and the soil was placed in a polypot (diameter: 10.5 cm, height: 9 cm). The soybean seeds used were “Enrei” (purchased from Nikko Seed Co. Ltd.). After tap water was supplied in an amount of 250 mL per pot, 2 seeds per pot were each sown at a depth of from about 1 to 2 cm from the soil surface. The number of repeats in each test plot was 6 (n=6).
1.5% agar (Wako Pure Chemical Industries, Ltd.) was added to Yeast-Mannitol (YM) medium (0.5 g of K2HPO4, 0.2 g of MgSO4-7H2O, 0.1 g of NaCl, 0.4 g of yeast extract, 10 g of mannitol, and 1 L of distilled water (pH: 6.8)) to prepare a solid medium, and a soybean Rhizobium (Bradyrhizobium japonicum) NBRC14783T strain was grown on the solid medium. A platinum loop of the grown Rhizobium was taken and inoculated in 50 mL of YM liquid medium in a Sakaguchi flask with a volume of 500 mL, and shake-cultured at 30° C. for about 36 hours. […]
Exudate components contained in the cotton balls were eluted with ultrapure water and filtered using Micro Biospin chromatography column (Bio-Rad Laboratories, Inc.). […] The 1 000-fold diluted filtrate was quantified. […]

soybean [2] = experiment: Example 3: soybean nodule activity, mixing ratio of ascorbic acid and antioxidant; type: in vivo; conditions: ascorbic acid dissolved in tap water, in comparison to no application
Experimental: (§1) The items of the preparation of soil and sowing, the inoculation of Rhizobium, the exudate collection method for measuring the amount of ureide nitrogen, which serves as an indicator of nodule activity, the experimental operation before quantification of exudate, the equipment and measurement method used for quantification of the amount of ureide nitrogen, and the standard products used and quantification were the same as those in Example 2, and the cultivation of soybean was carried out for 21 days.
The cultivation was carried out in an artificial weather apparatus (LPH-411SP, Nippon Medical & Chemical Instruments Co., Ltd.), with the light condition of a light period (light intensity from […]) of 16 hours/a dark period of 8 hours, the temperature of 30° C. for the light period/25° C. for the dark period, and a humidity of 50%. On day 7 after sowing, the plants were thinned so as to be one plant per pot. Watering was carried out by adding water to a vat placed under the pot so that about 5 cm of the lower part of the pot would be submerged after the vat had run out of water.
The spraying solutions shown in Table 4 below were prepared in the same manner as in Example 2, and 6.7 mL of each was sprayed per plant using a mister an day 14 after sowing. Foliar spray was carried out only once, and 7 types of test plots were examined (Table 4). […]

soybean [3] = experiment: Example 5: soybean nodule activity after application of high concentration of ascorbic acid; type: in vivo; conditions: ascorbic acid dissolved in deionized water in comparison to tap water, regardless of amount of water
Description: as §1, with “Rhizobium, the cultivation conditions, the exudate collection” for “Rhizobium, the exudate collection”, “of ureide nitrogen as an” for “of ureide nitrogen, which serves as an”, “in Example 3, and the” for “in Example 2, and the”
Foliar spray treatment was carried out on day 14 after sowing. In addition to the reagents mentioned in Examples 2, 3, and 4, polyethylene glycol monolaurate and a glycerol fatty acid ester were used as nonionic surfactants. The reagents were dissolved in tap water or deionized water to prepare spraying solutions. Foliar spray was carried out only once. Assuming aerial spraying, 8 types of test plots containing a high concentration of ascorbic acid were examined (Table 6). In the test plots 2 and 3, 6.7 mL of each per plant was sprayed using a mister, and in the test plots 4 to 8, 0.125 mL of each per plant was sprayed.
The mean and the standard deviation were calculated from the data of four repeats, excluding the highest and the lowest values from the six repeats in each test plot.

legume crops = conditions: total of three foliar sprays, ascorbic acid solution dissolved in distilled water, vegetative or reproductive growth stage; cited from earlier work

For `O=C1O[C@H]([C@@H](O)CO)C(O)=C1O` [ascorbic acid, (R)-3,4-dihydroxy-5-((S)-1,2-dihydroxyethyl)furan-2(5H)-one], which nodule activity (soybean [1]; ascorbic acid 1,500 ppm dissolved in deionized water, soybean early growth stage) is on record?
Its nodule activity is “increased”.

What about the “application effect of ascorbic acid (nodule activity)” value (soybean [1]; ascorbic acid 1,500 ppm dissolved in tap water) of the same compound?
Its value is “tended to decrease”.

What about the “nodule activity (allantoin and allantoic acid in exudate)” value (soybean [2]) of the same compound?
The value was “did not change or rather decreased”.

And the “nodule activity (allantoic acid in exudate)” value (soybean [3])?
Its value is “increased”.

And the increase the yield (legume crops)?
The increase the yield was “up to 30%”.
